Experimental findings from US20070078092A1, “Cell permeable conjugates of peptides for inhibition of protein kinases” (priority 2003, published 2007) are described below.

For orientation: IC50 means the concentration that inhibits the measured activity by half.

The test system of assay [1] is prostate cancer cell lines. The experiment in a line: Growth inhibition assay, combination with chemotherapeutic agents.
Description: The chemotherapeutic agents used are: Mitoxantrone hydrochloride (Novantrone, Wyeth Lederle S.p.A. Catania, Italy) supplied as a sterile aqueous solution of 3.8 mM. Doxorubicin, Etoposide and Vinblastine sulfate salt (Sigma) were dissolved in 100% DMSO to prepare stock solutions at concentration of 10 mM. Docetaxel (Taxpter, Aventis) stock solution of 11.6 mM in polysorbate 80. These agents were diluted in medium just before use for in vitro studies.
Cells were incubated for five days in the present of the drugs followed by fixation and staining of cells with methylene blue.
The target of the next assay is T1, PKB (Homo sapiens, UniProt P31749).
T1 construct: His; HA; made in house
T1 sequence (P31749 whole entry, species assumed): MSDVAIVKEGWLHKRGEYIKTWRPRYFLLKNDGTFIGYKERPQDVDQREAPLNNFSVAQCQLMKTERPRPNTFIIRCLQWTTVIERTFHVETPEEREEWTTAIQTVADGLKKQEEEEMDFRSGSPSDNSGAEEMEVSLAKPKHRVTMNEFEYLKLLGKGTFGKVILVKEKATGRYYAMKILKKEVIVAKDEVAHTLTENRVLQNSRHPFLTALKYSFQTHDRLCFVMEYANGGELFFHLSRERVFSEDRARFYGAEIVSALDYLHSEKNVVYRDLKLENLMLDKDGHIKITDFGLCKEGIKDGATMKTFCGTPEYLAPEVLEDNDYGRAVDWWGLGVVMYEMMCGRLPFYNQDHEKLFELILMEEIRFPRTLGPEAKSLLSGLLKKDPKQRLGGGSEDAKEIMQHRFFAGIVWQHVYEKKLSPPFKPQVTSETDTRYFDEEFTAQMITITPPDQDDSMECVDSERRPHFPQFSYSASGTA
Kind of assay: PKB in vitro kinase activity assay. Format: biochemical.

A further assay deals with PC3 cells. Kind of assay: Growth inhibition assay in PC3 cells. Format: cell-based, human. Conditions: 50 μM. From the text:
(§1) Several cancer cell lines were used to determine the activity of PKB inhibitor compounds in intact cells. The human prostate carcinoma cell lines, PC-3 and LNCaP. The human acute T cells leukemia cell line, Jurkat. Human breast carcinoma cell lines: MCF-7 and MDA468 and renal adenocarcinoma cell 786-O. LNCaP,MDA468, 786-O and Jurkat cell lines express high basal level of activated PKB. PC-3 expresses moderate level of activated PKB. MCF-7 expresses low but inducible level of activated PKB. Control cells are PBLs, normal peripheral blood lymphocytes which obtained from normal donors (blood bank) and MCF10F which is a non tumorogenic breast cell line. […]
(§2) Cells were fixed by 0.5% glutardialdehyde followed by staining with 1% methylene blue in borate buffer (Sigma) for one hour. […] Quantitation of color intensity was performed by measurement of the optical density at 600 nm by ELISA reader. […]
(§3) At the appropriate time in culture 1uci of 3H-thymidine (stock of 5 Ci/mmole, Amersham) was added to each well containing 100 μl of medium for 5 hours. […] The radioactivity was counted using microplate counter, Packard TopCount.
(§4) Fifty percent inhibitory concentration (IC50) values were calculated using nonlinear regression in one site competition model with GraphPad Prism version 3.03 Windows (GraphPad Software, San Diego, USA)

The subject of the next assay is LNCaP cells. Kind of assay: Growth inhibition assay in LNCaP cells. Format: cell-based, human. Conditions: Table 3, assay B2.
Excerpt: as §1, §2, §3, §4

The test system of assay [2] is prostate cancer cell lines. The experiment in a line: Cell death and apoptosis in prostate cancer cell lines. Format: cell-based, human. From the text:
(§5) Several cancer cell lines were used to determine the activity of PKB inhibitor compounds in intact cells. The human prostate carcinoma cell lines, PC-3 and LNCaP. The human acute T cells leukemia cell line, Jurkat. Human breast carcinoma cell lines: MCF-7 and MDA468 and renal adenocarcinoma cell 786-O. LNCaP,MDA468, 786-O and Jurkat cell lines express high basal level of activated PKB. PC-3 expresses moderate level of activated PKB. MCF-7 expresses low but inducible level of activated PKB. Control cells are PBLs, normal peripheral blood lymphocytes which obtained from normal donors (blood bank) and MCF10F which is a non tumorogenic breast cell line. The control cells are used to compare the effect of the protein kinase inhibitors on the tested cancer cells and the normal cells.
Peptide conjugates, which are active in enzyme inhibition assays were tested in cells for induction of apoptosis of cancer cell lines. Apoptosis was assayed at least by two methods in each cell line. Cells were seeded at the appropriate plates for each method, treated with or without the inhibitory compounds for different time points and analyzed by one of the below methods.
Table 9 represents the cell death induced by the protein kinase inhibitors in prostate cancer cell lines vs. normal cells. […]

The subject of assay [3] is PC3 tumor xenograft. The experiment in a line: Efficacy study in mice bearing PC3 tumor, IT injection. Format: in vivo. Conditions: high dose (3.3 mg/kg), every other day, second week, FIG. 8. As for the experimental part:
C2. Efficacy Study in Mice Bearing PC3 Tumor
a. PC3 cells ([…]) were injected subcutaneously in matrigel, into hip area of Nude male mice (Harlan Co., Israel). Tumor size was determined by caliper using the formula: Length ×(width^2)×0.4. The tumors were allowed to grow to volume of about 50 mm 3 before the treatment was started. The appropriate doses of compounds were injected subcutaneously into the region surrounding the tumors (IT injection). The treatment was given 3 times a week; every other day for two weeks, and the tumor size was measured once every two days.
The high safety of PTR 6164 allows a very large therapeutic window. The conjugates were further tested in vivo in efficacy studies as described in C2 above: • a. The peptides were injected every other day, at the tumor area. After 3 injections, an indicative tendency of reduction in tumor size was observed.

Assay [4] relates to PC3 tumor xenograft. The experiment in a line: Efficacy study in mice bearing PC3 tumor, systemic administration. Format: in vivo. As for the experimental part: b. Human prostatic PC-3 cancer cells are grafted subcutaneously in 5 weeks old male nude Balb/c mice of approximately 20 g. Each mouse will receive 2.5×10^6cells at Day 0. Intraperitoneal (i.p.) treatment is initiated when tumour volume reaches approximately 50 mm^3. I.p. administration is highly acceptable in preliminary experiments, and exemplifies the stability in the blood and liver, and the distribution through the blood into the tumor. The control groups is treated with the vehicle 10% DMSO -90% 2-hydroxypropyl-beta-cyclodextrin at 1×10^−2M in sterile saline. Tumour volume measurements with callipers (equation=length×width^2×0.4) and body weights are recorded 3 times weekly on Mondays, Wednesdays and Fridays. Mice are monitored twice daily for general health status. Mice are sacrificed when the tumour mass in the respective vehicle treated groups reaches approximately 20% of the body weight or if this should not be obtained, 3 weeks after the end of the treatment. At the end of the experiment, the tumours of the 3 first sacrificed mice in each group are collected and embedded in paraffin blocks for further histological examination. The remaining tumours are collected and frozen in liquid nitrogen for western blot analysis.
Although the peptide dose was 3.3 mg/kg the MTD for this compound is 40 times higher, indicating a high therapeutic index. • b. Two concentrations were tested, 66 mg/kg and 33 mg/kg, which are 0.5 and 0.25 of the MTD. The relatively high doses were selected because we had no previous knowledge on the pharmacokinetics of the compound, and we wanted to obtain maximum effect, although we expected that toxic effects might occur as a result of the high dosing.
The compounds were dissolved in a solution of 10% DMSO/90% cyclodextrin in physiological saline. Six groups of 9 mice in each were tested. Two groups received the compound i.v, every 48 hours, and two groups received it daily, by i.p. injection. Treatment started at 7 days post graft, lasted for 21 days, followed by a 14-day observation period. The experiment consisted four experimental groups as in table 7:
It is clear that the effect of the inhibitors was very significant, despite the aggressiveness of the tumors.
Three tumors from each group were studies and a clear trend of increased apoptosis is observed in the treated tumors, implying induction of apoptosis through inhibition of PKB. Tumors were collected after the 14 days observation period in which no treatment was given, indicating long-term effect. The ratio between apoptosis to mitoses in tumor sections express the viability of the tumor. In a viable tissue mitotic process are dominant and apoptosis is minor while in dying tissue this ratio is reversed. […]

In assay [5] the test system is PKB downstream substrates GSK3 and FKHR. Kind of assay: Inhibition of phosphorylation of PKB downstream substrates (Western blot). Format: cell-based, human. Conditions: cancer cells. As for the experimental part: B3. Inhibition of Phosphorylation of PKB and Downstream Substrates:
Peptide conjugates identified as inhibitors of PKB were further tested in cells for their ability to inhibit the phosphorylation of several PBK downstream substrates. The substrate GSK3 is associated with cell metabolism and cell cycle. Forkhead (FKHR) is directly associated with apoptosis. Inhibitory activity in these assays indicates also that the positive compounds penetrate into the cells.
Cells (2×10^6) were seeded in 25 cm^2 flasks grown for 2 days at normal medium conditions. Inhibitory compounds were added for 24 hrs and analyzed for their effect on PKB phosphorylation at Ser473 residue and on the phosphorylation of specific substrates of PKB, GSK3 and FKHR. At the end of the treatment cells were lysed using lysis buffer (20 mM Tris-HCl pH 7.4, 150 mM NaCl, 0.5% Triton-x100, 25 mM NaF, 2 mM AEBSF, 1 mM sodium orthovanadate, 10 mM β-glycerophosphate, 1 μg/ml aprotonin and 5 μg/ml leupeptin). Equal amounts of cell protein were resolved by 10% SDS-PAGE and electroblotted to PVDF membranes. Western blot analysis was performed using antibodies against phospho-Akt1 (Ser473), phospho-GSK3α (Ser21) and phosphor-FKHR (Thr24), which were obtained from Cell Signaling Technology and against Akt1 (Upstate), GSK3α (Transduction Laboratories), and FKHR (Cell Signaling Technology).
Background: In western blotting, separated proteins are transferred to a membrane and probed.

Assay [6] has as its system Prostate cancer PC3 and LNCaP, T-cell leukemia Jurkat, and breast cancer MCF-7. The experiment in a line: Cellular activity in the relevant cancer cell lines. Format: cell-based, human.
Excerpt: as §5
Selected peptide conjugates, which were found active in the enzyme-inhibition assays were screened for their ability to inhibit growth of tumor cell lines. Screening for inhibitory compounds was done, initially, at concentration of 50 μM. Active compounds from the first screening were further tested at different concentrations (50, 25, 12.5, 6.25, 3.125 and 1.56 μM) in order to determine their IC50. Growth inhibition was tested using two methods: A. staining of viable cells with methylene blue, B. incorporation of ^3H-thymidine. For both methods cells were grown in 96-well plates: LNCaP, 5000 cell per well for 72 hours, PC3, 5000 cells per well for 48 hours Jurkat, MDA468, and 786-O, 2500, 5000 and 1000 cells per well respectively for 24 hours, before tested compounds were added. The assays were done in triplicates for one to six days.
In addition, some of the new conjugates were also 10-20 times selective for PKB over PKA in contrast to previously described chimeric compounds. • 1. […] From the peptide transporter conjugates, 96 compounds were tested all were very active in the in-vitro kinase assay and very selective 10-50 fold, however only few were active in cells. The selected 6 active conjugates show 8-20 μM activity in cells.

The mark [7] stands for this setting: 120 h, read-out: IC50 of chemotherapeutic agent alone.
[8] abbreviates: read-out: IC50 of chemotherapeutic agent +PTR 6320, combined with 1.5 μM of PTR 6320, five days, methylene blue.
[9] abbreviates: i.p. 33 mg/kg, tumors collected after the 14 days observation period.

Counter-ions that a name gives are not always drawn. Like-named read-outs stand apart in the source and are kept apart here. Where only a bound is given, the exact number is not on record here.

For `CC(=O)O[C@@]12CO[C@@H]1C[C@H](O)[C@@]1(C)C(=O)[C@H](O)C3=C(C)[C@@H](OC(=O)[C@H](O)[C@@H](NC(=O)OC(C)(C)C)c4ccccc4)C[C@@](O)([C@@H](OC(=O)c4ccccc4)[C@H]21)C3(C)C` [Docetaxel], the IC50 in assay [1] (setting [7]) was found to be 0.6 nM; in assay [1] (setting [8]), 0.03 nM.
For `COc1cccc2c1C(=O)c1c(O)c3c(c(O)c1C2=O)C[C@@](O)(C(=O)CO)C[C@@H]3O[C@H]1C[C@H](N)[C@H](O)[C@H](C)O1` [Doxorubicine, Doxorubicin] the same measures were 13 nM and 1.1 nM.
In the same order, the values of `COc1cc([C@@H]2c3cc4c(cc3[C@@H](O[C@@H]3O[C@@H]5CO[C@@H](C)O[C@H]5[C@H](O)[C@H]3O)[C@H]3COC(=O)[C@H]23)OCO4)cc(OC)c1O` [Etoposide] are 300 nM and 17 nM.
With `O=C1c2c(O)ccc(O)c2C(=O)c2c(NCCNCCO)ccc(NCCNCCO)c21` [Mitoxantrone, Mitoxantrone hydrochloride], the concentration for half-maximal inhibition (IC50) in assay [1] (setting [7]) was 3.4 nM; in [1] (setting [8]) it was approximately 0.36 nM.
For `CC[C@]1(O)C[C@@H]2CN(CCc3c([nH]c4ccccc34)[C@@](C(=O)OC)(c3cc4c(cc3OC)N(C)[C@H]3[C@@](O)(C(=O)OC)[C@H](OC(C)=O)[C@]5(CC)C=CCN6CC[C@]43[C@@H]65)C2)C1` [Vinblastine] the same measures were 2.2 nM and 0.1 nM.
Regarding “Ahx6-DArg-DArg-DArg-DArg-DGln-DArg-DArg-DLys-DLys-DArg-6154 [Peptide AB60025-54]”, the results for the “% Inhibition PKB activity” value at PKB (1 μM) and at PKB (10 μM) were 95% and 97%, respectively.
Take “Arg-Gln-Ile-Lys-Ile-Trp-Phe-Gln-Asn-Arg-Arg-Met-Lys-Trp-Lys-Lys-6154 [Peptide AB60025-2]”: the “% Inhibition PKB activity” value at PKB (1 μM) amounted to 60%; at PKB (10 μM), 92%. The “% Inhibition PC3 growth” value with PC3 cells amounted to 60%. Also, the IC50 in the assay with LNCaP cells is less than 12500 nM.
Regarding “Arg-Gln-Ile-Lys-Ile-Trp-Phe-Gln-Asn-Arg-Arg-Met-Lys-Trp-Lys-Lys-6184 [Peptide AB60025-4]”, the “% Inhibition PKB activity” value on PKB (1 μM) came out at 80%; on PKB (10 μM), 96%. The “% Inhibition PC3 growth” value in the assay on PC3 cells is reported as 52%. This compound also came in with an IC50 in the assay on LNCaP cells of 10000 nM.
Regarding “Cholesteryl-O—CO-(DLys)3-Arg-Pro-Arg-Nva-Tyr-Dap-Hol-NH2 [PTR 6320]”, the “improved in vitro selectivity in comparison to PTR 6164” value at PKB (protein kinase B vs. protein kinase A, FIG. 11) was “about 20 times”. In addition, in [2] (cancer cells), the “concentration inducing apoptosis in cancer cells” value was found to be 3 µM. In [2] (compared with prototype PTR 6164), the “efficacy / potency in cellular assays relative to PTR 6164” value was “five times better efficacy”.
On to “Cholesteryl-O—CO-Arg-Pro-Arg-Nva-Tyr-Dap-Hol-NH2 [PTR 6164]”, for which the “tumor regression after injection at the tumor area” value in the assay on PC3 tumor xenograft [3] is “four out of five animals showed complete regression of the tumor”. In the assay on PC3 tumor xenograft [4] (daily i.p. injections, 66 mg/kg and 33 mg/kg, 21 days), the “effect on tumor growth” value is on record as “significant inhibition of tumor growth”. Also, in the assay with PC3 tumor xenograft [4] (setting [9]), the “Apoptosis in tumor sections” value came out at 5.6 and the “Mitoses in tumor sections” value is given as 3.4. In the assay with PC3 tumor xenograft [4] (injections every 48 hours (i.v.), 66 mg/kg and 33 mg/kg), the “effect on tumor size” value is “no effect on the tumor size”. In addition, the “phosphorylation of GSK3 and FKHR” value in [5] was “decreases the phosphorylation of GSK3 and FKHR”. The cellular activity in assay [6] is 12 µM.
In assay [6], “Myristyl-Gly-Arg-Pro-Arg-Nva-Tyr-Dap-Hol-NH2 [PTR 6180]” registered a cellular activity of 25 to 50 µM.
On the same count and under the same terms, for “Vitamin E succinate-Arg-Pro-Arg-Nva-Tyr-Dap-Hol-NH2 [PTR 6244]” the value was 15 to 20 µM.
